In one assay the target is human 3β-HSD1. The experiment in a line: 3β-HSD1 inhibition, colorimetric NADH detection assay. As to conditions: purified recombinant human 3β-HSD1, 50 μM DHEA, 2 mM NAD+, 1 hour, room temperature, duplicate 10-point CRC; read-out: IC50 (nM), in vitro NADH inhibition. Format: biochemical. The source says: Enzymatic turnover was quantified through NADH generation by purified, recombinant human 3β-HSD1 (expressed in Sf9 insect cells) in the presence of steroidal substrate trans-Dehydroandrosterone (DHEA) that was placed slightly above the experimentally determined Km and saturating amounts of co-factor Nicotinamide adenine dinucleotide (NAD^+). The sequence of recombinant human 3β-HSD1 used is […] […] […] […] […] […] […] (SEQ ID NO: 3). DHEA and NAD+ were enzymatically converted to androstenedione and NADH, respectively. Final NADH concentrations were spectroscopically quantified using a commercially available Amplite™ Colorimetric NADH Assay Kit which utilizes an NADH probe with an absorbance wavelength of 460 nm. Enzymatic assays with a final volume of 25 μL were ran in a 384-well, Greiner Bio-One UV-STAR® assay plate in 50 mM TRIS pH 8.0 assay buffer. […] Compound stocks at 10 mM in DMSO were serial diluted 5-fold in DMSO to generate an ECHO® compatible source plate. 125 nL of DMSO, Trilostane, or serial diluted compounds were then acoustically transferred into an empty UV-STAR® assay plate to give a final assay concentration of 0.5% v/v DMSO. The stamp volume and dilution scheme can be adjusted to accommodate compound potency. The assay can tolerate up to a 5% v/v DMSO final assay concentration. 15 μL of 1 μg purified 3β-HSD1 and 50 μM DHEA (final assay volume concentration) was dispensed per well into the stamped plate, centrifuged for 1 minute at 1000 RPM, covered, and allowed to incubate for 15 minutes at room temp. Enzymatic reactions were initiated upon the addition of 10 μL of NAD^+ diluted in assay buffer to give a final assay volume concentration of 2 mM. The assay plate was centrifuged for 1 minute at 1000 RPM, covered, and incubated at room temperature for 1 hour. 25 μL Amplite™ Colorimetric NADH Assay Kit detection solution (prepared as recommended) was added to all reaction wells, the plate centrifuged for 1 minute at 1000 RPM, covered, and incubated for 15 minutes. Final absorbance values (λ=460 nm) are spectroscopically determined on BioTek® Cytation5 or Synergy4 plate readers. […] From the background subtracted values, the non-inhibited enzyme signal (DMSO treated) was averaged from 32 control reactions. The percent inhibition value was calculated by: % inhibition=(1−((background subtracted inhibited reaction)/(background subtracted non-inhibited average)))*100. The resulting percent inhibition was then plotted in duplicate against corresponding concentration values. The resulting CRCs were fit with a four parameter, variable slope log (inhibitor) vs response equation where Y=bottomvalue+ (topvalue−bottomvalue)/(1+10^((log IC50−X)*Hillslope)) to determine the IC50 values for tested compounds.

Assay [1] deals with Androstenedione synthesis in C4-2 prostate cancer cells. Kind of assay: Cell line steroid metabolism: androstenedione synthesis inhibition (HPLC, [3H]-labeled androgens). Format: cell-based. The conditions noted are these: Homo sapiens, serum-free RPMI-1640, [3H]-labeled androgens 25 nM. As to the method:
Cells were seeded and incubated in 12-well plates with 0.15 million cells/well in RPMI-1640 medium with 10% FBS for ˜24 h at 37° C. Culture medium was then replaced with serum-free RPMI-1640 and a mixture of radioactive ([3H]-labeled) and non-radioactive androgens (final concentration, 25 nM; ˜600,000 cpm/well; PerkinElmer, Waltham, MA) plus inhibitor compounds at specified concentrations was added. […]
High-performance liquid chromatography (HPLC) analysis was performed on a Waters 1525 HPLC system (Waters Corp., Milford, MA). Dried samples were reconstituted in 50% methanol and injected into the HPLC. Steroids were separated on a Luna 150×4.6 mm, 3.0 μm particle size C18 reverse-phase column (Phenomenex, Torrance, CA) with a methanol/water gradient at 50° C. Column effluent was mixed with Liquiscint scintillation cocktail (National Diagnostics, Atlanta, GA) and analyzed using a β-RAM model 4 in-line radioactivity detector (LabLogic, Brandon, FL).

Assay [2] relates to C4-2 prostate cancer cells. Kind of assay: Cellular viability of C4-2 cells (CellTiter-Glo). Format: cell-based, human. As to conditions: 6 days, 1% FBS + DHEA, read-out: GI50 (μM), growth inhibition. As to the method: C4-2 cells were routinely maintained in RPMI+2 mM L-Glutamine+1× Anti-Anti+10% FBS. C4-2 cells were harvested by trypsinization for 90 seconds in 0.25% Trypsin-EDTA, counted with a Vi-Cell Blu cell counter (Beckman Coulter), and diluted into Complete Viability Media (RPMI+2 mM L-Glutamine+1× Anti-Anti+1% FBS+[…]) at a density of 10,000 cells/mL. 12-point, two-fold dilution series of test compounds (starting at 10 mM) were prepared in 100% DMSO, and then 450 nL of the dilution series were stamped in triplicate into 384-well, white, opaque bottom, TC-treated CulturPlate™ (Perkin Elmer 6007680) using acoustic dispensing (Labcyte Echo 550). 50 μL/well of the diluted C4-2 cells (500 cells/well) were added directly to the plates containing dispensed compounds, yielding a final [DMSO] of 0.9% and a final top [compound] of 90 μM. The plates were centrifuged for 1 min at 500×g and then incubated for 6 days at 37° C., 5% CO2. Cell density at the end of the assay was measured using 35 μL/well CellTiter-Glo® (Promega) per the manufacturer's recommendations, and total luminescence was measured on a Cytation 5 plate reader. Raw luminescence values were normalized from 0 (empty Viability Media+0.9% DMSO, no cells) to 100 (Cells+0.9% DMSO, maximum proliferation), triplicate values were averaged, and dose-response curves were fit and G150 values extracted using variable slope nonlinear regression in GraphPad Prism.

In the next assay the test system is C4-2 flank tumor. The experiment in a line: CRPC C4-2 flank tumor model in mice. The class given is in vivo. As to conditions: orchiectomized NSG male mice with DHEA pellets, 100 mg/kg in water with 20% Captisol, oral gavage twice daily. As to the method:
The mouse study was performed under a protocol approved by the Institutional Animal Care and Use Committee of the Cleveland Clinic Lerner Research Institute. All NOD scid gamma (NSG) male mice (6 to 8 weeks old) were purchased from the Jackson Laboratory. 10^7 C4-2 cells were injected subcutaneously into mice with matrigel (total injection volume 100 μL). Once tumors reached 100 mm^3 (length×width×height×0.52), mice were surgically orchiectomized and implanted with 5 mg 90-day sustained-release DHEA pellets (Innovative Research of America) to mimic human adrenal DHEA production in patients with CRPC, then the mice were arbitrarily (but not strictly randomized) assigned to vehicle (n=6), Compound 1 (n=6), or Compound 5 (n=6). The mice were given vehicle, Compound 1 (100 mg/kg in water with 20% Captisol), or Compound 5 (100 mg/kg in water with 20% Captisol) by oral gavage twice daily.

The text below walks through data of patent US20250241905A1, “3-BETA-HSD1 INHIBITORS AND COMPOSITIONS AND USES THEREOF” (The Cleveland Clinic Foundation, priority 2022, published 2025).

Where two headings read alike, the source gives them in different places.

human 3β-HSD1, sequence (P14060 2-373 limits assumed): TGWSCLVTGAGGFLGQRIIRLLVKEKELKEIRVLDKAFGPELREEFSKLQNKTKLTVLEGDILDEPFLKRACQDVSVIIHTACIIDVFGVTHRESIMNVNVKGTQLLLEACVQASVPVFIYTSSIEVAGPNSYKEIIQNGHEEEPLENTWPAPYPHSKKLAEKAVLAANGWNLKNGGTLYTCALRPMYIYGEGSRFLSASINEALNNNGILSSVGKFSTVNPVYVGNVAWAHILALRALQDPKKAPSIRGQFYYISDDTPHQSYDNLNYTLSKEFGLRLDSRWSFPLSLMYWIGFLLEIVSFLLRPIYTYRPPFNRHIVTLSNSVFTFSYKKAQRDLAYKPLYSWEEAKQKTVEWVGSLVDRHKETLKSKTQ

By IC50 is commonly meant the concentration at which inhibition is half-maximal. Turning to `CC[C@@]1(C)CCc2nc(-c3cc(F)c(O)c(F)c3)ccc2C1=O` [Compound 55], the IC50 at human 3β-HSD1 worked out at 89 nM; in assay [1], 0.7 nM.

One may read the GI50 as the concentration at which growth is held to half of that of the control. In the case of `O=C1c2ccc(-c3cc(F)c(O)c(F)c3)nc2CCC12CC2` [Compound 11], the IC50 at human 3β-HSD1 was 68 nM; in assay [1], 4.8 nM. For the same compound, the concentration for 50% growth inhibition (GI50) in assay [2] (Homo sapiens, 144 h) was 10 µM.

On to `CC1(C)CCc2nc(-c3cc(F)c(O)c(F)c3)ccc2C1O` (centres unmarked) [Compound 12], for which the IC50 at human 3β-HSD1 amounted to 2560 nM. In addition, in assay [2] (Homo sapiens, 144 h), the concentration for 50% growth inhibition (GI50) was 61 µM.

Regarding `CC1(C)CCc2nc(-c3cc(F)c(O)c(F)c3)ccc2C1=O` [Compound 5, 2-(3,5-difluoro-4-hydroxyphenyl)-6,6-dimethyl-7,8-dihydroquinolin-5(6H)-one], the 50% inhibitory concentration (IC50) at human 3β-HSD1 worked out at 71 nM; in assay [1], 1.4 nM. Also, the “tumor volume compared to vehicle control” value in the assay with C4-2 flank tumor was “reduction in tumor volume”. Besides, the GI50 in assay [2] (Homo sapiens, 144 h) amounted to 26 µM.

In the case of `CC1(C)CCc2nc(-c3cc(F)c(O)c(F)c3)ccc2C1(O)C1CC1` (centres unmarked) [Compound 20], at human 3β-HSD1, the 50% inhibitory concentration (IC50) is 331 nM. For the same compound, the GI50 in assay [2] (Homo sapiens, 144 h) amounted to 30 µM.

As to `CCC1(CC)CCc2nc(-c3cc(F)c(O)c(F)c3)ccc2C1=O` [Compound 59], the figures for the concentration for half-maximal inhibition (IC50) (at human 3β-HSD1; in assay [1]) were 71 nM and 3.8 nM, respectively.

Take `CC1CCc2nc(-c3cc(F)c(O)c(F)c3)ccc2C1=O` (centres unmarked) [Compound 7, 2-(3,5-difluoro-4-hydroxyphenyl)-6-methyl-7,8-dihydroquinolin-5(6H)-one]: the values for the IC50 (at human 3β-HSD1; in assay [1]) were 64 nM and 7.2 nM, respectively. The GI50 in assay [2] (Homo sapiens, 144 h) amounted to 37 µM.

Take `O=C1c2ccc(-c3cc(F)c(O)c(F)c3)nc2CCC1Cc1ccccc1` (centres unmarked) [Compound 9, 6-benzyl-2-(3,5-difluoro-4-hydroxyphenyl)-7,8-dihydroquinolin-5(6H)-one]: the concentration for half-maximal inhibition (IC50) on human 3β-HSD1 came out at 37 nM; in assay [1], 10 nM. For the same compound, the 50% growth inhibitory concentration (GI50) in assay [2] (Homo sapiens, 144 h) was found to be 6 µM.

As for `CC1(C)CCc2nc(-c3cc(F)c(O)cc3F)ccc2C1=O` [Compound 25], the values for the IC50 (at human 3β-HSD1; in assay [1]) were 84 nM and 1 nM, respectively.

For `O=C1CCCc2nc(-c3ccc(O)c(F)c3)ccc21` [Compound 2, 2-(3-fluoro-4-hydroxyphenyl)-7,8-dihydroquinolin-5(6H)-one], the IC50 was 45 nM on human 3β-HSD1 and 14 nM in assay [1]. Further, the 50% growth inhibitory concentration (GI50) in assay [2] (Homo sapiens, 144 h) was 59 µM.

Take `O=C1c2ccc(-c3cc(F)c(O)c(F)c3)nc2CCC1(F)F` [Compound 41]: the results for the IC50 (on human 3β-HSD1; in assay [1]) were 79 nM and 68 nM, respectively.

`O=C1CCCc2nc(-c3cc(F)c(O)c(F)c3)ccc21` [Compound 1, 2-(3,5-difluoro-4-hydroxyphenyl)-7,8-dihydroquinolin-5(6H)-one]: the IC50 at human 3β-HSD1 is 62 nM; in assay [1], 83 nM. Further, the “tumor volume compared to vehicle control” value in the assay on C4-2 flank tumor was “reduction in tumor volume”. Besides, the GI50 in assay [2] (Homo sapiens, 144 h) is 53 µM.

For `O=C1c2ccc(-c3cc(F)c(O)c(F)c3)nc2CCC1c1ccccc1` (centres unmarked) [Compound 10, 2-(3,5-difluoro-4-hydroxyphenyl)-6-phenyl-7,8-dihydroquinolin-5(6H)-one], the IC50 on human 3β-HSD1 came out at 79 nM. Further, the GI50 in assay [2] (Homo sapiens, 144 h) worked out at 10 µM.

In the case of `CC1(C)CCc2nc(-c3cc(F)c(O)c(Cl)c3)ccc2C1=O` [Compound 54], the half-maximal inhibitory concentration (IC50) on human 3β-HSD1 stood at 107 nM.

In the case of `CC1(C)CCc2nc(-c3ccc(O)c(C(F)(F)F)c3)ccc2C1=O` [Compound 50], on human 3β-HSD1, the IC50 was found to be 1500 nM.

As to `C[C@]12CCC(=O)C=C1CC[C@@H]1[C@@H]2CC[C@]2(C)C(c3cccnc3)=CC[C@@H]12` [D4-Abiraterone, reference compound], the 50% growth inhibitory concentration (GI50) in assay [2] came out at 2.4 ± 0.4 µM.

Consider `C[C@@]1(Cc2ccccc2)CCc2nc(-c3cc(F)c(O)c(F)c3)ccc2C1=O` [Compound 58], for which the IC50 on human 3β-HSD1 was found to be 55 nM.

Regarding `CC1(C)Cc2nc(-c3cc(F)c(O)c(F)c3)ccc2C1=O` [Compound 72], the IC50 on human 3β-HSD1 was 221 nM.

On to `COC1(C(C)C)CCCc2nc(-c3cc(F)c(O)c(F)c3)ccc21` (centres unmarked) [Compound 87], for which, at human 3β-HSD1, the IC50 was determined as 45 nM.

For `CCOC1(c2ccccc2)CCCc2nc(-c3cc(F)c(O)c(F)c3)ccc21` (centres unmarked) [Compound 90], the IC50 on human 3β-HSD1 amounted to 52 nM.

With `CC1(C)CCc2nc(-c3cc(F)c(O)c(F)c3)ccc2C1(C)O` (centres unmarked) [Compound 16], the 50% inhibitory concentration (IC50) on human 3β-HSD1 amounted to 376 nM. In assay [2] (Homo sapiens, 144 h), the GI50 is 20 µM.

In the case of `O=C1CCNc2nc(-c3cc(F)c(O)c(F)c3)ccc21` [Compound 26], the IC50 at human 3β-HSD1 was determined as 218 nM.

Regarding `COCC1(C)CCc2nc(-c3cc(F)c(O)c(F)c3)ccc2C1=O` (centres unmarked) [Compound 75], the 50% inhibitory concentration (IC50) at human 3β-HSD1 is 338 nM.

For `Cc1c(-c2ccc3c(n2)CCCC3=O)cc(F)c(O)c1F` [Compound 27], on human 3β-HSD1, the half-inhibitory concentration (IC50) worked out at 367 nM.

For `Oc1c(F)cc(-c2ccc3c(n2)CCCC3OCC2COC2)cc1F` (centres unmarked) [Compound 74], at human 3β-HSD1, the 50% inhibitory concentration (IC50) stood at 441 nM.

Regarding `CCC1CCc2nc(-c3cc(F)c(O)c(F)c3)ccc2C1=O` (centres unmarked) [Compound 8, 2-(3,5-difluoro-4-hydroxyphenyl)-6-ethyl-7,8-dihydroquinolin-5(6H)-one], the IC50 on human 3β-HSD1 amounted to 105 nM. Also, in assay [2] (Homo sapiens, 144 h), the GI50 amounted to 16 µM.

In the case of `CCN1CC(C)(C)C(=O)c2ccc(-c3cc(F)c(O)c(F)c3)nc21` [Compound 82], the IC50 on human 3β-HSD1 is 326 nM.

As for `O=C1c2ccc(-c3cc(F)c(O)c(F)c3)nc2CCC1Cc1cccnc1` (centres unmarked) [Compound 39], the IC50 on human 3β-HSD1 was found to be 249 nM.

On to `CCOC1CCCc2nc(-c3cc(F)c(O)c(F)c3)ccc21` (centres unmarked) [Compound 76], for which the IC50 on human 3β-HSD1 came out at 389 nM.

With `O=C1c2ccc(-c3cc(F)c(O)c(F)c3)nc2CCC12COC2` [Compound 63], at human 3β-HSD1, the IC50 was determined as 370 nM.
